Experimental data published in ChEMBL document CHEMBL1201862, “PubChem BioAssay data set” (2004).
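Method: 48-hour compound exposure of cells in 96-well plates, five concentrations, linear interpolation of endpoints. At the GI50, growth is halved.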 Active and inactive are the calls of the source. Rule as the data show it: active = GI50 up to about 1.1 µM and inactive = higher.

Tests used:
Experiment in all cases: NCI anticancer screen, dose series, 48 h
[1] = system: HCC 2998
[2] = system: OVCAR-4
[3] = system: SN12C
[4] = system: HCT-116
[5] = system: SK-MEL-28
[6] = system: HL-60
[7] = system: OVCAR-5
[8] = system: SF-268
[9] = system: KM12
[10] = system: NCI-H226
[11] = system: NCI-H23
[12] = system: K562
[13] = system: LOX IMVI
[14] = system: SF-539
[15] = system: NCI-H460
[16] = system: OVCAR-8
[17] = system: MCF7
[18] = system: IGROV-1
[19] = system: HCT-15
[20] = system: EKVX

| Structure (SMILES) | GI50 [1] | GI50 [2] | GI50 [3] | GI50 [4] | GI50 [5] | GI50 [6] | GI50 [7] | GI50 [8] | GI50 [9] | GI50 [10] | GI50 [11] | GI50 [12] | GI50 [13] | GI50 [14] | GI50 [15] | GI50 [16] | GI50 [17] | GI50 [18] | GI50 [19] [µM] | GI50 [20] |
| --- | --- | --- | --- | --- | --- | --- | --- | --- | --- | --- | --- | --- | --- | --- | --- | --- | --- | --- | --- | --- |
| CCN1CCCc2cc3c(C(F)(F)F)cc(=O)oc3cc21 | > 100 µM (inactive) | > 100 µM (inactive) | 99.8 µM (inactive) | 91.8 µM (inactive) | > 100 µM (inactive) | 0.0258 µM (active) | > 100 µM (inactive) | > 100 µM (inactive) | > 100 µM (inactive) | 64.6 µM (inactive) | 57.4 µM (inactive) | 63.8 µM (inactive) | 82.2 µM (inactive) | > 100 µM (inactive) | 82.8 µM (inactive) | 91.6 µM (inactive) | 56.2 µM (inactive) | > 100 µM (inactive) | > 100 | 8.11 µM (inactive) |
| CC1(C)N=C(N)N=C(N)N1c1ccc(CCCCc2ccc(S(=O)(=O)F)cc2Cl)c(Cl)c1 | 5.04 µM (inactive) | 37.2 µM (inactive) | 1.16 µM (inactive) | 1.03 µM (active) | 4.93 µM (inactive) | 0.366 µM (active) | 17.2 µM (inactive) | 0.984 µM (active) | 2.52 µM (inactive) | 18.5 µM (inactive) | 4.07 µM (inactive) | 0.425 µM (active) | 1.75 µM (inactive) | 1.67 µM (inactive) | 0.266 µM (active) | 4.46 µM (inactive) | 2.39 µM (inactive) | 0.39 µM (active) | 2.72 | 36.2 µM (inactive) |
| O=C(CCCl)NN=C1NCCCN1 | > 100 µM (inactive) | > 100 µM (inactive) | > 100 µM (inactive) | > 100 µM (inactive) | > 100 µM (inactive) | > 100 µM (inactive) | > 100 µM (inactive) | > 100 µM (inactive) | > 100 µM (inactive) | > 100 µM (inactive) | > 100 µM (inactive) | > 100 µM (inactive) | > 100 µM (inactive) | > 100 µM (inactive) | > 100 µM (inactive) | > 100 µM (inactive) | > 100 µM (inactive) | > 100 µM (inactive) | > 100 | > 100 µM (inactive) |
| NC(=O)c1[nH]nc(C2OC(CO)C(O)C2O)c1O (stereo not given) | 42.5 µM (inactive) | 24.7 µM (inactive) | 3.18 µM (inactive) | 0.548 µM (active) | 328 µM (inactive) | 0.724 µM (active) | 183 µM (inactive) | 4.57 µM (inactive) | 10.4 µM (inactive) | 181 µM (inactive) | 9.59 µM (inactive) | 0.5 µM (active) | 0.504 µM (active) | 16.9 µM (inactive) | 0.573 µM (active) | 0.5 µM (active) | 1.79 µM (inactive) | 0.776 µM (active) | 0.5 | 52.6 µM (inactive) |
| C=C(Br)CN(CC(=C)Br)C(C)=O | > 100 µM (inactive) | > 100 µM (inactive) | > 100 µM (inactive) | > 100 µM (inactive) | > 100 µM (inactive) | > 100 µM (inactive) | > 100 µM (inactive) | > 100 µM (inactive) | > 100 µM (inactive) | > 100 µM (inactive) | > 100 µM (inactive) | > 100 µM (inactive) | > 100 µM (inactive) | > 100 µM (inactive) | > 100 µM (inactive) | > 100 µM (inactive) | > 100 µM (inactive) | > 100 µM (inactive) | > 100 | > 100 µM (inactive) |
| CC(=O)Nc1ccc(S(=O)(=O)N=S(C)C)cc1 | > 100 µM (inactive) | > 100 µM (inactive) | > 100 µM (inactive) | > 100 µM (inactive) | > 100 µM (inactive) | > 100 µM (inactive) | > 100 µM (inactive) | > 100 µM (inactive) | > 100 µM (inactive) | > 100 µM (inactive) | > 100 µM (inactive) | > 100 µM (inactive) | > 100 µM (inactive) | > 100 µM (inactive) | > 100 µM (inactive) | > 100 µM (inactive) | > 100 µM (inactive) | > 100 µM (inactive) | > 100 | > 100 µM (inactive) |
